Experimental data as given in ChEMBL document CHEMBL1140272, “Discovery of potent and use-dependent sodium channel blockers for treatment of chronic pain” (Bioorg Med Chem Lett, 2005).
pIC50, pKi: −log10 of the molar value.

Assays:
[1] = target: T1, Sodium channel protein type 9 subunit alpha (Homo sapiens, UniProt Q15858); assay: In vitro inhibitory concentration against Na v1.7 channel expressed in HEK293 cells using Voltage/Ion Probe Reader (VIPR) assay; format: cell-based
Target sequence in this assay (Q15858 whole entry): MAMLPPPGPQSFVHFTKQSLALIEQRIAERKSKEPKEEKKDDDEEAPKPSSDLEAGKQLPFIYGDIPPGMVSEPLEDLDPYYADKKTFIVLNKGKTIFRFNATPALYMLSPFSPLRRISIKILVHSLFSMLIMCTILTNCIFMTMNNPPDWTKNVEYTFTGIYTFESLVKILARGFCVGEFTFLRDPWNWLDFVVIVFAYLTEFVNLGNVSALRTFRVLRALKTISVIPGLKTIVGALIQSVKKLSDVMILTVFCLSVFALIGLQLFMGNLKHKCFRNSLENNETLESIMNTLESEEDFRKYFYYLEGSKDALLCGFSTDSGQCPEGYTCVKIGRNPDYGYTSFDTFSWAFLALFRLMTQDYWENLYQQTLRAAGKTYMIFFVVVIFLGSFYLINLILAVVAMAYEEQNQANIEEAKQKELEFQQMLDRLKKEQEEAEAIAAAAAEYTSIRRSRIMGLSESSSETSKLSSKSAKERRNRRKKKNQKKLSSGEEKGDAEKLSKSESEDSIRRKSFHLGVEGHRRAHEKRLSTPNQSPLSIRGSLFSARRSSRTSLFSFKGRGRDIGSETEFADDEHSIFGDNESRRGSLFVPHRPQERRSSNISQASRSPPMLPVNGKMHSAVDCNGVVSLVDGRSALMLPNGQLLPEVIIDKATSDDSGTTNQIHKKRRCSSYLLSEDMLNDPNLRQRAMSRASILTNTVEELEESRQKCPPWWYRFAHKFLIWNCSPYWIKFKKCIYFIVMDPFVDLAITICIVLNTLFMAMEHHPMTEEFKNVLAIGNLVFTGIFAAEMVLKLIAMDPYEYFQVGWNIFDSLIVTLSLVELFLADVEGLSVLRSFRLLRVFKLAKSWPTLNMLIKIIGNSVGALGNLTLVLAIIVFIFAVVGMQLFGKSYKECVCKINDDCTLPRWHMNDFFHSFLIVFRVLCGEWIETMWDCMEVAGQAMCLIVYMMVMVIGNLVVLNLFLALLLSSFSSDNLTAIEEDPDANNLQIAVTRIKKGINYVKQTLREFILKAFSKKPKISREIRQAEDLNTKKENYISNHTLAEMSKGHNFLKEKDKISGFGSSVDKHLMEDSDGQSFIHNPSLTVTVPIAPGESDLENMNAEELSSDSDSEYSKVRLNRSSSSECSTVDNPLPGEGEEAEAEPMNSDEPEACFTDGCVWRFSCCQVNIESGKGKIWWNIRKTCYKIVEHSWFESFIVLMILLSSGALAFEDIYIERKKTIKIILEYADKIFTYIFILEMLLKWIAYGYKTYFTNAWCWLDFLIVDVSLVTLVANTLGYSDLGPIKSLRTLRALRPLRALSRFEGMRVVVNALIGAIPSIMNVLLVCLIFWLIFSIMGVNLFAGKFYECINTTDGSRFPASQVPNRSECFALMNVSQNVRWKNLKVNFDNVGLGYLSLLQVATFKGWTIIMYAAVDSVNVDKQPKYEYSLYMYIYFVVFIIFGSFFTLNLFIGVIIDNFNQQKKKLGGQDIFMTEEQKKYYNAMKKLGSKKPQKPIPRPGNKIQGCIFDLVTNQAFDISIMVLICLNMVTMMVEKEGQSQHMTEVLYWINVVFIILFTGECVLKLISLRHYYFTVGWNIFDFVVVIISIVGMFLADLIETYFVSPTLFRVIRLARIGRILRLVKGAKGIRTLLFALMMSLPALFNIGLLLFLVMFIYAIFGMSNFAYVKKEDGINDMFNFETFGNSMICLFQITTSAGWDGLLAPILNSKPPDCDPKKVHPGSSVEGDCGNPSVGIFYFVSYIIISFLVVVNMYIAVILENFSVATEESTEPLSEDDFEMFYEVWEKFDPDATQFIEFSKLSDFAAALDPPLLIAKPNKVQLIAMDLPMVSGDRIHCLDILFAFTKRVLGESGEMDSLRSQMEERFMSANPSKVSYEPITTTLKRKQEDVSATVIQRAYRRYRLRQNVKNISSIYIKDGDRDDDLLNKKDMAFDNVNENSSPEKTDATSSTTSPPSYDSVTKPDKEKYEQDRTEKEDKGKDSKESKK

hERG (KCNH2) = hERG (KCNH2) (Homo sapiens, UniProt Q12809); assay: Percent inhibition against displacement of 35[S] MK-499 binding to hERG channel expressed in HEK293 cells at a concentration of 10 uM; format: cell-based; conditions: HEK293 cells that express hERG, probe [35S]MK-499
[2] = Bioavailability in rat; format: ADME, organism-based; conditions: in vivo
[3] = target: T1, Sodium channel protein type 9 subunit alpha; assay: In vitro inhibitory concentration against Na v1.7 channel electrophysiology in inactivated state expressed in HEK293 cells using Voltage/Ion Probe Reader (VIPR) assay; format: cell-based
Target sequence in this assay (Q15858 whole entry): as above

[4] = target: T2, Voltage-gated inwardly rectifying potassium channel KCNH2 (Homo sapiens, UniProt Q12809); assay: In vivo inhibitory concentration against displacement of 35[S] MK-499 binding to hERG channel expressed in HEK293 cells; format: organism-based
[5] = Clearance rate in rat was determined; format: ADME, organism-based; conditions: plasma, read-out: Clp
[6] = Half-life in rat was determined; format: ADME; conditions: in vivo
[7] = target: T1, Sodium channel protein type 9 subunit alpha; conditions: HEK293
Target sequence in this assay (Q15858 whole entry, looked up): as the sequence (Q15858 whole entry) above

[8] = target: T1, Sodium channel protein type 9 subunit alpha; assay: In vivo inhibitory concentration against Na v1.7 channel expressed in HEK293 cells using Voltage/Ion Probe Reader (VIPR) assay; format: organism-based
Target sequence in this assay (Q15858 whole entry): as above

Rattus norvegicus = assay: Percent formalin paw response in rat at (10-40 min, 3 mg/kg, iv); format: functional
[9] = target: T2, Voltage-gated inwardly rectifying potassium channel KCNH2
Description: In vitro inhibitory concentration against displacement of 35[S] MK-499 binding to hERG channel expressed in HEK293 cells

[10] = target: T1, Sodium channel protein type 9 subunit alpha; assay: In vitro inhibitory concentration against Na v1.7 channel electrophysiology in resting state expressed in HEK293 cells using Voltage/Ion Probe Reader (VIPR) assay; format: functional, cell-based
Target sequence in this assay (Q15858 whole entry, looked up): as the sequence (Q15858 whole entry) above

T2 sequence (Q12809 whole entry): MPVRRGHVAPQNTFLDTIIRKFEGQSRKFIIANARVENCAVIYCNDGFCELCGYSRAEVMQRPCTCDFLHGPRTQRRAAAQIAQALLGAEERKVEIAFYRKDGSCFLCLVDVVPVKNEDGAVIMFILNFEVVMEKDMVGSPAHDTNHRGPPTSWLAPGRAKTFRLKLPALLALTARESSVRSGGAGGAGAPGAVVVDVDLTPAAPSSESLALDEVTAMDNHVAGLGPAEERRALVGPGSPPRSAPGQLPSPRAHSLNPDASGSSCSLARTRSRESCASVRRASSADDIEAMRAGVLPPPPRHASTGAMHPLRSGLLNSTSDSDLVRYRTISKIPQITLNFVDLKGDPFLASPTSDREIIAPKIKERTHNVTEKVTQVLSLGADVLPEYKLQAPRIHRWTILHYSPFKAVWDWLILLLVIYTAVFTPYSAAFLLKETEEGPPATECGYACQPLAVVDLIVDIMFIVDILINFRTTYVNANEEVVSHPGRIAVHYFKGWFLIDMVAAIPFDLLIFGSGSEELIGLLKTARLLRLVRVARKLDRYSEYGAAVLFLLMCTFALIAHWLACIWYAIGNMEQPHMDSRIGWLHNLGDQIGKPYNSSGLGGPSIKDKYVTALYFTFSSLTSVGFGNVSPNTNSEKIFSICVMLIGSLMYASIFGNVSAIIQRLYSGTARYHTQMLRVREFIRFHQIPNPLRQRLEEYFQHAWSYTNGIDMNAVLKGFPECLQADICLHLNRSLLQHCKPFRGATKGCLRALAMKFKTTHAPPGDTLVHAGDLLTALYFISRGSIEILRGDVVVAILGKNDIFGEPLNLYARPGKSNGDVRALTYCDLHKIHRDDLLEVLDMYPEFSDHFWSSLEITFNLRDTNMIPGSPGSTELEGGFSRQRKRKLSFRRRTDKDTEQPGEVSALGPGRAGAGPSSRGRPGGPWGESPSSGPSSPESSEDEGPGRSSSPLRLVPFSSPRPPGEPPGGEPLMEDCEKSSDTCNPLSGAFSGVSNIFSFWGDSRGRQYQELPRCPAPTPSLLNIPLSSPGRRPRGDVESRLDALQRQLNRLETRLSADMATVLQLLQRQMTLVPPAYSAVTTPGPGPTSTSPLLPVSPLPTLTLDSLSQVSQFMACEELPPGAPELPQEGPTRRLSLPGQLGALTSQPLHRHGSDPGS
hERG (KCNH2), sequence (Q12809 whole entry): as above

Structure (SMILES): COc1cccc(C(=O)N2CCCC2)c1OCc1ccc(-c2cccs2)s1
- pIC50 [1]: 6.26

Structure (SMILES): CC(C)Oc1cccc(C(=O)N2CCCC2)c1OCc1csc(-c2ccc(Cl)cc2)n1
- pIC50 [1]: 5.12

Structure (SMILES): COc1cccc(C(=O)N2CCCCCCC2)c1OCc1csc(-c2ccc(Cl)cc2)n1
- pIC50 [1]: 4.71
- inhibition at 10 µM (hERG (KCNH2)): 88%

Structure (SMILES): CC(C)(C)Oc1cccc(C(=O)N2CCCC2)c1OCc1csc(-c2ccc(Cl)cc2)n1
- pIC50 [1]: 4.66

Structure (SMILES): CCOc1cccc(C(=O)N2CCCC2)c1OCc1csc(-c2ccc(Cl)cc2)n1
- pIC50 [1]: 5.18

Structure (SMILES): COc1cccc(C(=O)N2CCCC2)c1OC(C)c1ccccc1 (stereo not given)
- pIC50 [1]: < 4.52

Structure (SMILES): COc1cccc(C(=O)N2CCCC2)c1OCc1nc(-c2ccc(Cl)cc2)no1
- pIC50 [1]: 6.07

Structure (SMILES): COc1cccc(C(=O)N2CCCC2)c1OCCc1ccccc1
- pIC50 [1]: < 4.52

Structure (SMILES): COc1cccc(C(=O)N2CCCCCC2)c1OCc1csc(-c2ccc(Cl)cc2)n1
- pIC50 [1]: 5.19
- inhibition at 10 µM (hERG (KCNH2)): 85%

Structure (SMILES): COc1cccc(C(=O)N2CCCC2)c1OC(C)c1csc(-c2ccc(Cl)cc2)n1 (stereo not given)
- pIC50 [1]: 5.66

Structure (SMILES): COc1cccc(C(=O)N2CCCC2)c1OCCCc1ccccc1
- pIC50 [1]: 4.68

Structure (SMILES): COc1cccc(C(=O)N2CCCC2)c1OCc1ccc(C(C)(C)C)cc1
- pIC50 [1]: 4.05

Structure (SMILES): Cc1cccc(C(=O)N2CCCC2)c1OCc1csc(-c2ccc(Cl)cc2)n1
- pIC50 [1]: 6.26

Structure (SMILES): COc1cccc(C(=O)N2CCCC2)c1OCc1ccc(-c2ccccc2)cc1
- pIC50 [1]: 5.40

Structure (SMILES): O=C(c1cccc(O)c1OCc1csc(-c2ccc(Cl)cc2)n1)N1CCCC1
- pIC50 [1]: < 4.52

Structure (SMILES): O=C(c1ccccc1OCc1csc(-c2ccc(Cl)cc2)n1)N1CCCC1
- pIC50 [1]: 6.00
- bioavailability [2]: 17%
- pKi [3]: 6.80
- pIC50 [4]: 5.01
- clearance [5]: 627 mL/min/kg
- half-life [6]: 26.4 min
- KR [7]: 6.7 µM
- pIC50 [8]: 6.00
- Activity (Rattus norvegicus): 65%
- inhibition at 10 µM (hERG (KCNH2)): 63%

Structure (SMILES): O=C(c1ccccc1OCc1csc(-c2ccc(Cl)cc2)n1)N1CCCCCC1
- pIC50 [1]: 4.40
- inhibition at 10 µM (hERG (KCNH2)): 90%

Structure (SMILES): O=C(c1ccccc1OCc1csc(-c2ccc(Cl)cc2)n1)N1CCCCCCC1
- pIC50 [1]: 4.54
- inhibition at 10 µM (hERG (KCNH2)): 90%

Structure (SMILES): Clc1ccc(-c2nc(COc3ccccc3CN3CCCCCCC3)cs2)cc1
- pIC50 [1]: 5.54

Structure (SMILES): COc1cccc(C(=O)N2CCCCC2)c1OCc1csc(-c2ccc(Cl)cc2)n1
- pIC50 [1]: 5.43
- inhibition at 10 µM (hERG (KCNH2)): 63%

Structure (SMILES): COc1cccc(CN2CCCCCCC2)c1OCc1csc(-c2ccc(Cl)cc2)n1
- pIC50 [1]: 5.42

Structure (SMILES): O=C(c1ccccc1OCc1csc(-c2ccc(Cl)cc2)n1)N1CCCCC1
- pIC50 [1]: 5.13
- inhibition at 10 µM (hERG (KCNH2)): 89%

Structure (SMILES): O=C(c1cccc(Cl)c1OCc1csc(-c2ccc(Cl)cc2)n1)N1CCCC1
- pIC50 [1]: 6.14

Structure (SMILES): COc1cccc(C(=O)N2CCCC2)c1OCc1csc(-c2ccc(Cl)cc2)n1
- pIC50 [1]: 5.89
- pIC50 ([1]; hek293): 5.89
- bioavailability [2]: 9.4%
- pIC50 [9]: 5.11
- pKi [3]: 6.85
- clearance [5]: 101 mL/min/kg
- half-life [6]: 28.8 min
- Activity (Rattus norvegicus): 68%
- KR [10]: 10 µM
- inhibition at 10 µM (hERG (KCNH2)): 50%

Structure (SMILES): COc1cccc(CN2CCCCCCC2)c1OCc1csc(-c2ccccc2)n1
- pIC50 [1]: 5.40
- pIC50 [9]: 6.74
